Patent publication US4096112A, “2-Phenyl-indole derivative stabilizers for PVC resins” (Labaz, priority 1976, dated 1978)

Assays:
mice [1] = test: Maximal dose which does not provoke any death (LD0), oral route, mice; assay type: in vivo; settings: for Toxic symptoms: LD0 test
Protocol: (§1) A gummy suspension of the substance under study was administered by oral route to groups of at least ten mice and the following results were observed: […]

[2] = Static thermostability of the stabilized resin, simplified method (GARDNER sub-scale in polyvinyl chloride sheets)
Protocol: (§2) These studies were performed with five different formulae of vinyl resins (hereinafter referred to as Compounds).
(§3) The different Compounds were mixed and calendered in a mixer of which the cylinders were heated to 160° C. The rigid sheets so obtained were then heated in an oven to a temperature between 180° C and 215° C, until incipient carbonization.
(§4) A stove with rotating drums, ventilated and equipped with a thermostat was used for this operation. In the trials described hereunder, the behaviour of the sheets containing one of the stabilizers to be tested was compared to that of sheets of the same formulae but containing 2-phenylindole as stabilizer.
(2) It is also possible to use a simplified method which is more rapid and with which valid results are also obtained: A reference scale is drawn up with sheets of thermally treated polyvinyl chloride, of which the colorations have been definitely determined in GARDNER degrees as above.
A GARDNER sub-scale is thus obtained in polyvinyl chloride sheets which can be directly compared to the sheets to be tested without using the comparator.

[3] = Acute toxicity (LD50), oral route, mice; assay type: in vivo; settings: mouse, in vivo, gummy suspension
Protocol: (§5) The acute toxicity (LD50) of the stabilizers listed below was carried out, by determining the dose of substance which provoked the death of 50% of the treated animals.
as §1

mice [4] = test: Acute toxicity (LD50), oral route, mice; assay type: in vivo; settings: LD50 test
Protocol: as §5, §1

[5] = assay type: physicochemical; settings: water; for Extractibility compared with 2-phenyl-indole: aqueous ethanol and heptane
Protocol: The stabilizers according to the invention may be used to stabilize polymers which are intended for the manufacture of packaging and containers for food and drink and it was therefore necessary, in spite of their low toxicity, to determine their extractibility by solvents simulating food and drink. This study was carried out in accordance with the requirements of the Food and Drug Administration (U.S.A). The extractions were performed in semi-rigid bottles, prepared with Compounds Nos. 609 and 676, and with the following solvents: water, an aqueous solution of acetic acid (3%), ethanol-water 50/50, heptane. The ratio of the volume of solvent to the surface of plastic material exposed to extraction was about 1 to 100 ml of solvent, taking into account the geometric characteristics of the bottles. Temperature: 49° C Heating: A thermostated oven for the non-inflammable solvents (water and acetic acid) A thermostated water-bath for the inflammable solvents (alcohol and heptane) Duration of extraction: This is indicated under each result. They are, in each case, intentionally longer than those which would have given stable maximum values. The quantity of stabilizer extracted was determined by colorimetric assay using p-dimethylaminobenzaldehyde, in accordance with the method described in Analytical Chemistry 36, 425-26 (1964). A blank trial was carried out with a Compound of the same formula as Compounds Nos. 609 and 676, but without any stabilizer. A purely negative result was obtained. The amounts of stabilizer assayed are expressed in μg per liter of extraction solvent or, which is the same per 1000 cm^2 of surface submitted to extraction.

[6] = Sublimation of the stabilizers; assay type: physicochemical; settings: 120° C, 15 Torr, 150 minutes; for Percentage of sublimated substance: cold wall 13° C, 150 mg
From the text: The tendency to sublimate of 2-(3'-methoxy-4'-hydroxy-phenyl)-indole (Stabilizer 2) was compared to that of 2-phenyl-indole.
A sample of the substance to be tested was introduced into a test tube and heated under reduced pressure. The fraction of sublimated substance was recovered on a mobile cold wall.
After a certain period of time, the sublimated substance was weighed and the result expressed as a percentage of the weight of the starting material.
The results obtained can only be of relative value enabling a comparison to be made between two products tested under the same conditions.
Operating conditions (chosen at random)

[7] = Thermostability of the stabilizers: differential thermoanalysis; assay type: physicochemical; settings: 2° C/minute, 2 mg
Protocol: (§6) The thermostability of Stabilizer 2 and that of 2-phenyl-indole were studied by differential thermoanalysis and by thermogravimetric analysis.
Differential thermoanalysis diagrams were drawn up by studying 2 mg samples of material placed in a non-airtight container, the rate of temperature increase being 2° C/minute and sensitivity 4 mcal/sec.
The diagrams were made out for 2-phenyl-indole (i) and Compound 2 (ii) and enabled the following conclusions to be drawn: […]

[8] = Thermostability of the stabilizers: thermogravimetric analysis; assay type: physicochemical
Protocol: as §6
This analysis necessitated two series of trials carried out under air and under inert gas (argon) in order to eliminate any possible effect of oxygen. The results obtained were identical.
The temperature increase rate was 80° /hour.
Thermograms were drawn up under air for both 2-phenyl-indole (i) and for Stabilizer 2 (ii) and enabled the following conclusions to be drawn: […]

[9] = Static thermostability of the stabilized resin, GARDNER Scale comparator; settings: 210° C
Protocol: as §2, §3, §4
(1) The coloration of the sheets, of which samples were removed from the stove at fixed intervals, was compared to a standard scale of coloration, known as the GARDNER Scale and expressed in terms of the reference figures of the GARDNER Scale.
Comparisons were made with a GARDNER Scale comparator which contains 18 filters of coloured glass and which offers the possibility of observing by transparency and in a limited field of view both the sheet and the reference filters.

## COc1ccc(-c2cc3ccccc3[nH]2)cc1OCc1ccccc1 [Stabilizer 29, 2-(3'-benzyloxy-4'-methoxy-phenyl)indole]
Mice [1]
  LD0 (maximal dose which does not provoke any death): > 500 mg/kg
  Toxic symptoms: none

## COc1cc(-c2cc3ccccc3[nH]2)ccc1OCc1ccccc1 [Stabilizer 31, 2-(3'-methoxy-4'-benzyloxy-phenyl)-indole]
Mice [1]
  LD0 (maximal dose which does not provoke any death): > 500 mg/kg
  Toxic symptoms: none

## COc1ccc(-c2cc3ccccc3[nH]2)cc1O [Stabilizer 13, 2-(3'-hydroxy-4'-methoxy-phenyl)-indole]
[2]; Compound A, 210° C
  Static thermostability compared with 2-phenyl-indole: clearly superior to 2-phenyl-indole

## COc1cc(OC)cc(-c2cc3ccccc3[nH]2)c1 [Stabilizer 3, 2-(3',5'-dimethyoxy-phenyl)-indole]
[3]
  LD50: > 2000 mg/kg
Mice [4]
  Toxic symptoms: none
[2]; Compound A, 210° C
  Static thermostability compared with 2-phenyl-indole: markedly superior to 2-phenyl-indole

## c1ccc2[nH]c(-c3ccc4c(c3)OCO4)cc2c1 [Stabilizer 33, 2-(3',4'-methylenedioxy-phenyl)-indole]
Mice [1]
  LD0 (maximal dose which does not provoke any death): > 3000 mg/kg
  Toxic symptoms: none

## c1ccc2[nH]c(-c3ccc4c(c3)OCCO4)cc2c1 [Stabilizer 34, 2-(3',4'-ethylenedioxy-phenyl)-indole]
Mice [1]
  LD0 (maximal dose which does not provoke any death): > 3000 mg/kg
  Toxic symptoms: none

## CCCCCCCCCCCCc1cc(-c2cc3ccccc3[nH]2)ccc1OC [Stabilizer 14, 2-(3'-dodecyl-4'-methoxy-phenyl)-indole]
[3]
  LD50: > 3000 mg/kg
Mice [4]
  Toxic symptoms: none
[5]
  Extractibility compared with 2-phenyl-indole: markedly less extractible than 2-phenyl-indole

## COc1cc(-c2cc3ccccc3[nH]2)ccc1OC(C)C [Stabilizer 27, 2-(3'-methoxy-4'-isopropyloxy-phenyl)-indole]
Mice [1]
  LD0 (maximal dose which does not provoke any death): > 3000 mg/kg
  Toxic symptoms: none

## CCCCCCCCCCCCOc1ccc(-c2cc3ccccc3[nH]2)cc1OC [Stabilizer 24, 2-(3'-methoxy-4'-dodecyloxy-phenyl)-indole]
[5]
  Extractibility compared with 2-phenyl-indole: markedly less extractible than 2-phenyl-indole

## CCCCCCCCCCCCOc1ccc(-c2cc3ccccc3[nH]2)cc1C [Stabilizer 30, 2-(3'-methyl-4'-dodecyloxy-phenyl)-indole]
[5]
  Extractibility compared with 2-phenyl-indole: markedly less extractible than 2-phenyl-indole

## COc1c(C)cc(-c2cc3ccccc3[nH]2)cc1C [Stabilizer 17, 2-(3',5'-dimethyl-4'-methoxy-phenyl)-indole]
Mice [1]
  LD0 (maximal dose which does not provoke any death): > 3000 mg/kg
  Toxic symptoms: none

## c1ccc(-c2cc3ccccc3[nH]2)cc1 [2-phenyl-indole]
Mice [4]
  Toxic symptoms: none
[6]
  Percentage of sublimated substance: 26.9%
[7]
  Loss of water: no loss of water at 100 °C
[8]; under air, 210° C
  Residue / decomposition: a yellowish residue was, in fact, obtained at 210 °C which constitutes proof of decomposition

## COc1cc(-c2cc3ccccc3[nH]2)ccc1O [Stabilizer 2, 2-(3'-methoxy-4'-hydroxy-phenyl)-indole]
[3]
  LD50: > 2000 mg/kg
Mice [4]
  Toxic symptoms: none
[9]; Compound A
  Static thermostability compared with 2-phenyl-indole: superior to 2-phenylindole
[9]; Compound B
  Static thermostability compared with 2-phenyl-indole: superiority of Stabilizer 2 over 2-phenyl-indole is evident after 21 minutes
[2]; Compound C, 210° C
  Static thermostability compared with 2-phenyl-indole: superior as a stabilizer to 2-phenyl-indole
[2]; Compound D, 185° C, 0, 10 and 20 minutes
  Static thermostability compared with 2-phenyl-indole: markedly superior to 2-phenyl-indole at 0, 10 and 20 minutes
[6]
  Sublimation compared with 2-phenyl-indole (ratio): twenty times less than that of 2-phenyl-indole
  Percentage of sublimated substance: 1.2%
[7]
  Loss of water: no loss of water
[8]; thermogravimetric analysis and differential thermoanalysis
  Thermostability compared with 2-phenyl-indole: greater thermostability than 2-phenyl-indole
[5]
  Extractibility, times less than 2-phenyl-indole: at least 10 times less
  Extractibility compared with 2-phenyl-indole: markedly less extractible than 2-phenyl-indole

## CCOc1ccc(-c2cc3ccccc3[nH]2)cc1OC [Stabilizer 23, 2-(3'-methoxy-4'-ethoxy-phenyl)-indole]
Mice [1]
  LD0 (maximal dose which does not provoke any death): > 500 mg/kg
  Toxic symptoms: none

## CCCCCCCCCCCCc1cc(-c2cc3ccccc3[nH]2)ccc1O [Stabilizer 19, 2-(3'-dodecyl-4'-hydroxy-phenyl)-indole]
[5]
  Extractibility compared with 2-phenyl-indole: markedly less extractible than 2-phenyl-indole

## CCCCOc1ccc(-c2cc3ccccc3[nH]2)cc1OC [Stabilizer 25, 2-(3'-methoxy-4'-butyloxy-phenyl)-indole]
Mice [1]
  LD0 (maximal dose which does not provoke any death): > 3000 mg/kg
  Toxic symptoms: none

## COc1ccc(-c2cc3ccccc3[nH]2)cc1C(C)C [Stabilizer 15, 2-(3'-isopropyl-4'-methoxy-phenyl)-indole]
[3]
  LD50: > 3000 mg/kg
Mice [4]
  Toxic symptoms: none
